Source: PMC8346139, “Synthesis of New Tricyclic 1,2-Thiazine Derivatives with Anti-Inflammatory Activity” (International Journal of Molecular Sciences, 2021)
Entries after “also recorded” stand apart in the source; their conditions may differ.

Key:
[1] = Differential scanning calorimetry (DSC) of DPPC model membranes; format: physicochemical; conditions: pH 7.4, molar ratios 0.06–0.12
Source text: To investigate the interaction of the tricyclic 1,2-thiazine derivatives (Table 1) with model membranes, we used the differential scanning calorimetry (DSC) method. As a model of the phospholipid membrane, the multibilayers made of 1,2-dipalmitoyl-n-glycero-3-phosphatidylcholine (DPPC) in a buffer solution (pH 7.4) were used.
Tris-EDTA buffer solution (pH 7.4) and 1,2-dipalmitoyl-n-glycero-3-phosphatidyl- choline (DPPC) were purchased from Sigma-Aldrich, Merck KGaA, Darmstadt, Germany. None of the compounds studied were soluble in water, so their chloroform (P.P.H. STANLAB, Lublin, Poland, analytical grade) solutions were used for calorimetric experiments.
For each sample, 2 mg of phospholipid (DPPC) were dissolved in the appropriate amount of chloroform stock solution (5 mM) of the compounds studied (the compound: DPPC molar ratios in the samples were: 0.06, 0.08, 0.10, 0.12). The solvent was then evaporated under a stream of nitrogen gas. After that, the residual solvent was evacuated under vacuum (Rotary evaporator, Büchy Poland, Warsaw, Poland) for 2 h. In this process, the phospholipid was transferred onto the dry film on the inner surface of the Eppendorf tube. Samples were hydrated by 20 μL of Tris–EDTA buffer (pH 7.4). […] Then, the samples were transferred into aluminum sample pans of the Concavus® type (Netzsch GmbH & Co., Selb, Germany) and sealed. A pan of the same type, filled with 20 μL of Tris–EDTA buffer (pH 7.4), was employed as a reference. Measurements of the DPPC main phase transition were performed using the heat-flow measurement method at a heating rate of 1 °C per minute over a temperature range of 30–50 °C in a nitrogen dynamic atmosphere (25 mL/min). Data were analyzed off-line using Netzsch Proteus® 7.1.0 (Netzsch GmbH & Co., Selb, Germany) analysis software. The transition enthalpies were stated in [J/g]. The measured heat was normalized per gram of lipid. […] All samples were weighed on a Sartorius CPA225D-0CE analytical balance (Sartorius AG, Gottingen, Germany) with a resolution of 0.01 mg.

[2] = target: T1, ovine COX-1 (Ovis aries, UniProt P05979); assay: COX colorimetric inhibitor screening assay, COX-1
T1 sequence (P05979 25-600): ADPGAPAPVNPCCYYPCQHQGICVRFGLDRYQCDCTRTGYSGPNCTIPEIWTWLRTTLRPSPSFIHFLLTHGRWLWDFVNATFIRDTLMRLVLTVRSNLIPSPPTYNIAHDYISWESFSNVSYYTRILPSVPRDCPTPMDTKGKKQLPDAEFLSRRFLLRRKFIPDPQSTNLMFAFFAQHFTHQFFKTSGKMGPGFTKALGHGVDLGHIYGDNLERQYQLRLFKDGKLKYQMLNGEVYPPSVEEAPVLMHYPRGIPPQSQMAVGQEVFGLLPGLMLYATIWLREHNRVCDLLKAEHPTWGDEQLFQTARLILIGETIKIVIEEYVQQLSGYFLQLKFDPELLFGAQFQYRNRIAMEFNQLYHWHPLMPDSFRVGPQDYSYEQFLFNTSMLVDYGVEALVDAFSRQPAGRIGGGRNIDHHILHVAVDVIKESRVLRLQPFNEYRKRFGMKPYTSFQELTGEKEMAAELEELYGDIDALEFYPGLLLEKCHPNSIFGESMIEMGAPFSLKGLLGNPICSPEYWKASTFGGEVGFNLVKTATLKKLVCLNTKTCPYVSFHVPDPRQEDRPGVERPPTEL
Protocol: (§2) The selectivity of the compounds for COX-1 or COX-2 was assessed by calculation of the IC50 ratios.
(§3) The compounds were dissolved in ethanol to get the final concentration of 100 µM. Each tested solution of compounds was transferred into a 96-well plate in three repetitions and then incubated for 2 min at RT with prepared reagents according to the manufacturing procedure. This assay measured the peroxidase component of COXs, which is evaluated as monitoring the oxidized form of N, N, N’, N’-tetramethyl-p-phenylenediamine (TMPD). The absorbance was measured using a VariuScan microplate reader at 590 nm. The data were calculated according to 3 steps. First, the average absorbance of all the samples was determined. Second, the absorbance of the background wells was subtracted from the absorbance of 100% of the starting COX-1 and COX-2 activity and the test compound wells.

[3] = target: T2, human recombinant COX-2 (Homo sapiens, UniProt P35354); assay: COX colorimetric inhibitor screening assay, COX-2; conditions: for Ratio: COX-2/COX-1: ratio of IC50 values COX-2/COX-1; for COX-2/COX-1 selectivity compared with meloxicam: comparison of IC50 ratios; for COX-2 inhibition effect compared with meloxicam: comparison of IC50 values
T2 sequence (P35354 18-604): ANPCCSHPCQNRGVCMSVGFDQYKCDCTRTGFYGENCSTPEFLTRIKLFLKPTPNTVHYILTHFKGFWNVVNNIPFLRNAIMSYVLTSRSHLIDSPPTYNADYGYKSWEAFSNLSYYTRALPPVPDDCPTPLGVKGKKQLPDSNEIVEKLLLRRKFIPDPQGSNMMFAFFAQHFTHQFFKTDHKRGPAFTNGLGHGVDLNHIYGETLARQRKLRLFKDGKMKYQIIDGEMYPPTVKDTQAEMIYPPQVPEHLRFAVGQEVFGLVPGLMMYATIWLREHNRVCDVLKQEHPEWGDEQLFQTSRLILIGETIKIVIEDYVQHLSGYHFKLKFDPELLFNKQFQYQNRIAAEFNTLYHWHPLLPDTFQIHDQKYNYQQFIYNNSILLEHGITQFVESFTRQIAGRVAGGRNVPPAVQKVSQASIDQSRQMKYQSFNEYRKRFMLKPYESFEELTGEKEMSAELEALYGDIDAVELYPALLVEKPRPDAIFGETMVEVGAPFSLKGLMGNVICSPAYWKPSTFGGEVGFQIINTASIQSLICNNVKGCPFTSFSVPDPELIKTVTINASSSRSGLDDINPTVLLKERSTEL
Protocol: as §2, §3

[4] = test system: NHDF cells; assay: MTT viability assay; format: cell-based, Human; conditions: 24 h incubation; for Mitochondrial activity of NHDF cells: 10 µM and 50 µM, compared to control; for Mitochondrial activity of NHDF cells / Cytotoxic effect on NHDF cells: MTT; for Cytotoxic effect on NHDF cells: 10, 50 and 100 µM
Protocol: The viability of the Normal Human Dermal Fibroblasts (NHDF) cells was assessed after 24 h incubation with 10, 50 and 100 µM tested compounds in MTT assay. […] The less than 30% decrease in culture viability was observed only in concentration of 100 µM for compound 6b in comparison to control (i.e., no cytotoxic potential of tested compound). […] Thus, all new compounds were directed to further research.
The study was carried out using the NHDF cell line obtained from ATCC (Manassas, VA, USA). These cells are commonly used to determine the cytotoxicity of new compounds. Cells were cultured at 37 °C in a humidified 5% CO2/95% air atmosphere incubator and passaged twice a week.
(§1) The 1,2-thiazine derivatives were dissolved in DMSO to a stock concentration of 10 mM. All prepared stock solutions were stored at −20 °C for up to 6 months. For the experiment, the compounds tested were used in the concentration range of 10, 50 and 100 μM. […] The abovementioned tested compounds were tested on NHDF cells.
The viability of the cells was assessed after 24 h incubation with 10–100 µM tested compounds in MTT assay. After incubation, cell culture with a 1 mg/mL solution of MTT for 2 h at 37 °C, the formazan crystals were dissolved in isopropanol. The plates were then shaken for 30 min, and the absorbance was measured at 570 nm using VariuScan microplate reader.

[5] = test system: NHDF cells; assay: DCF-DA assay of reactive oxygen species (ROS); format: cell-based, Human; conditions: 1 h treatment; 10, 50 and 100 µM; compared to control
Protocol: The level of reactive oxygen species (ROS) was evaluated in DCF-DA assay and nitric oxide (NO) in Griess assay, on NHDF cells. […] This increase may be due to the normal cellular activity due to the increased cell numbers, probably resulting from proliferation.
as §1
Levels of reactive oxygen species (ROS) and nitric oxide (NO) were evaluated in DCF-DA (2′,7′-dichlorofluorescein diacetate) and Griess (cat. No. G7921; Thermo Fisher Scientific, Waltham, MA, USA) assays, respectively. In these assays, the cells were treated with tested compounds only for 1 h. After that time, the 50 µL of supernatant were transferred into new plates to assess the NO level. The remaining supernatant was removed, the cell culture was washed, and the 25 µM DCF-DA solution was added for 1 h at 37 °C. […] The plates with DCF-DA solution were analyzed with the Varioskan LUX microplate reader (λex = 485 nm and λem = 535 nm). The NO level was analyzed by the measurement of the absorbance at 548 nm using VariuScan microplate reader.

Structure (SMILES) | Effect on DPPC gel-liquid crystalline phase transition parameters (Tm, T½, ΔH) [1] | melting point [°C] | IC50 [2] [µM] | IC50 [3] [µM] | Ratio: COX-2/COX-1 [3] | COX-2/COX-1 selectivity compared with meloxicam [3] | COX-2 inhibition effect compared with meloxicam [3] | Mitochondrial activity of NHDF cells [4] | Cytotoxic effect on NHDF cells [4] | Level of reactive oxygen species (ROS) [5] | Decrease in culture viability ([4]; 100 µM, in comparison to control)
Cc1ccc(C2=C3C(=O)c4ccccc4S(=O)(=O)N3CCCO2)cc1 [Compound 6d, 7,7-dioxo-1-(p-tolyl)-4,5-dihydro-3H-[1,4]oxazepino[4,3-b][1,2]benzothiazin-12-one] | most pronounced effects | 204 to 206 | 126 | 92.9 | 0.74 |  |  |  |  |  | 
Cc1ccc(C(=O)C2=C(O)c3ccccc3S(=O)(=O)N2)cc1 [Compound 4d] |  |  | 89.3 | 55.3 | 0.62 | higher COX-2/COX-1 selectivity than for meloxicam | stronger COX-2 inhibition effect than the meloxicam |  |  |  | 
O=C1C2=C(c3ccc(Cl)cc3)OCCCN2S(=O)(=O)c2ccccc21 [Compound 6c, 1-(4-chlorophenyl)-7,7-dioxo-4,5-dihydro-3H-[1,4]oxazepino[4,3-b][1,2]benzothiazin-12-one] | most pronounced effects | 168 to 170 | 89.8 | 94.1 | 1.05 |  |  | statistically significant increase |  |  | 
O=C(C1=C(O)c2ccccc2S(=O)(=O)N1)c1ccc(Cl)cc1 [Compound 4c] |  |  | 89 | 55.9 | 0.63 | higher COX-2/COX-1 selectivity than for meloxicam | stronger COX-2 inhibition effect than the meloxicam | statistically significant increase | no cytotoxic effect was observed |  | 
O=C1C2=C(c3ccccc3)OCCN2S(=O)(=O)c2ccccc21 [Compound 5, 6,6-dioxo-1-phenyl-3,4-dihydro-[1,4] oxazino [4,3-b][1,2]benzothiazin-11-one] |  | 182 to 183 | 66.1 | 56.9 | 0.86 |  | stronger COX-2 inhibition effect than the meloxicam |  |  |  | 
COc1ccc(C2=C3C(=O)c4ccccc4S(=O)(=O)N3CCCO2)cc1 [Compound 6e, 1-(4-methoxyphenyl)-7,7-dioxo-4,5-dihydro-3H-[1,4]oxazepino[4,3-b][1,2]benzothiazin-12-one] | most pronounced effects | 144 to 145 | 115 | 56.9 | 0.49 | higher COX-2/COX-1 selectivity than for meloxicam; also recorded: most selective inhibitor of COX-2 | stronger COX-2 inhibition effect than the meloxicam |  |  |  | 
O=C(C1=C(O)c2ccccc2S(=O)(=O)N1)c1ccccc1 [Compound 4a] |  |  | 91.2 | 54.6 | 0.6 | higher COX-2/COX-1 selectivity than for meloxicam | stronger COX-2 inhibition effect than the meloxicam | statistically significant increase | no cytotoxic effect was observed | statistically significant increase | 
O=C1C2=C(c3ccccc3)OCCCN2S(=O)(=O)c2ccccc21 [Compound 6a, 7,7-dioxo-1-phenyl-4,5-dihydro-3H-[1,4]oxazepino[4,3-b][1,2]benzothiazin-12-one] |  | 171 to 172 | 106 | 89.9 | 0.85 |  |  |  |  |  | 
O=C1C2=C(c3ccccc3)OCCCCN2S(=O)(=O)c2ccccc21 [Compound 7, 8,8-dioxo-1-phenyl-3,4,5,6-tetrahydro-[1,4]oxazocino[4,3-b][1,2]benzothiazin-13-one] |  | 198 to 201 | 86.1 | 54 | 0.63 | higher COX-2/COX-1 selectivity than for meloxicam | stronger COX-2 inhibition effect than the meloxicam |  |  |  | 
O=C1C2=C(c3ccc(Br)cc3)OCCCN2S(=O)(=O)c2ccccc21 [Compound 6b, 1-(4-bromophenyl)-7,7-dioxo-4,5-dihydro-3H-[1,4]oxazepino[4,3-b][1,2]benzothiazin-12-one] |  |  | 86.9 | 95.1 |  |  |  |  |  |  | less than 30%
